Results published in patent US7625870B2, “Peptide substance restoring respiratory organs function” (“Access Bioscience” CJSC, priority 2004, dated 2009).
Peptide text beside a SMILES is read from it.

Experiments:
[1] = system: bleomycine lung fibrosis in rats; test: Chronic fibrosing inflammatory process (bleomycine lung fibrosis) in rats; format: in vivo, rat; details: for Body weight / Relative lungs weight / Ventricular index, right ven./left ven. × 100%: 0,2 μg/kg intraperitoneally; for Blood large CIC / Blood medium CIC: blood serum
Experimental: The experiment was carried out on 120 white mongrel rats weighing 130-160 g. The animals were divided at random into 3 groups, 40 animals in each. Then the animals were subjected to a thrice-repeated intratracheal administration of bleomycine solution (at a rate of 10.0 mg per kg of body weight) with 2 weeks interval. The tetrapeptide was administered intraperitoneally in the dose of […] of body weight in sterile 0,9% NaCl solution in the course of 7 days beginning from the 5h day after each bleomycine installation.
10 animals of each group were excluded from the experiment by the method of cervical dislocation on the 15, 30, 45 and 60 days after experiment onset.
In each period there was conducted broncho-alveolar lavage fluid (BALF) test in order to estimate its cellular content, and alveolar macrophages phagocytic activity, production of superoxide-anion and total free radical production by BALF cells. In the blood and BALF there were estimated the number of circulating immune complexes (CIC). After the last bleomycin administration there was conducted lung examination.

[2] = system: white mongrel male rats; test: Subacute toxicity, 90 days intramuscular; format: in vivo, rat; details: long term administration, doses 100-1000 times exceeding the therapeutic one
Excerpt: The general toxic effect of tetrapeptide was studied in compliance with “The manual of Experimental (Pre-Clinical) Study of New Pharmacological Substances” (2000): acute toxicity was studied in conditions of tetrapeptide single administration, subacute and chronic toxicity were investigated in conditions of long tetrapeptide administration.
Subacute toxicity of the tetrapeptide was investigated on 60 white mongrel male rats weighing 150-250g. The animals of the experimental groups were exposed to intramuscular injection of the tetrapeptide in the doses of 1 μg/kg, 0,1 mg/kg, 1 mg/kg in 0,5 ml of natural saline solution, once a day for 90 days. The animals of the control group were administered with natural saline solution in the same amount. Before the onset of tetrapeptide administration in the 30th, 60th and 90th day the animals were exposed to an examination of the morphological composition and characteristics of the peripheral blood. On the completion of the experiment there were studied biochemical and coagulological blood indices.

CC(C)C[C@H](NC(=O)[C@H](CC(=O)O)NC(=O)[C@H](CCC(=O)O)NC(=O)[C@H](C)N)C(=O)O [Tetrapeptide, L-alanyl-L-glutamyl-L-aspartyl-L-leucine] (H-AEDL-OH)
number of lymphocytes in BAFL ([1]; 30th day): 1,75±0,45 ×10^6 cells/lungs | AM phagocytic activity, phagocytic index ([1]; 45th day): 75,6±4,5 | AM phagocytic activity, phagocytic index ([1]; 60th day): 78,6±3,2 | number of lymphocytes in BAFL ([1]; 60th day): 1,11±0,15 ×10^6 cells/lungs | Body weight ([1]; day 15): 151.6 ± 5.6 g | Relative lungs weight ([1]; day 15): 11.3 ± 0.6 mg/g of body weight | Ventricular index, right ven./left ven. × 100% ([1]; day 15): 34.2 ± 1.8+ % | BAFL large CIC ([1]; day 15): 42.6 ± 13.1 units | BAFL medium CIC ([1]; day 15): 37.6 ± 7.6 units | Blood large CIC ([1]; day 15): 47.2 ± 12.3 units | Blood medium CIC ([1]; day 15): 113.4 ± 11.6+ units | Body weight ([1]; day 30): 176.8 ± 5.8 g | Relative lungs weight ([1]; day 30): 12.8 ± 0.4 mg/g of body weight | Ventricular index, right ven./left ven. × 100% ([1]; day 30): 37.2 ± 1.5*+ % | BAFL large CIC ([1]; day 30): 52.3 ± 8.3*+ units | BAFL medium CIC ([1]; day 30): 72.3 ± 8.1*+ units | Blood large CIC ([1]; day 30): 85.9 ± 12.3*+ units | Blood medium CIC ([1]; day 30): 187.6 ± 20.4*+ units | Body weight ([1]; day 45): 195.3 ± 6.5+ g | Relative lungs weight ([1]; day 45): 11.5 ± 0.3*+ mg/g of body weight | Ventricular index, right ven./left ven. × 100% ([1]; day 45): 42.3 ± 2.1*+ % | BAFL large CIC ([1]; day 45): 76.3 ± 8.3*+ units | BAFL medium CIC ([1]; day 45): 79.4 ± 5.4*+ units | Blood large CIC ([1]; day 45): 135.2 ± 12.3*+ units | Blood medium CIC ([1]; day 45): 208.7 ± 12.5*+ units | Body weight ([1]; day 60): 234 ± 9.3+ g | Relative lungs weight ([1]; day 60): 13.4 ± 0.5*+ mg/g of body weight | Ventricular index, right ven./left ven. × 100% ([1]; day 60): 46.6 ± 1.4*+ % | Ventricular index, right ven./left ven. × 100% ([1]; day 60, listed as tetrapeptide): 46,6±1,4% | BAFL large CIC ([1]; day 60): 53.2 ± 9.4+ units | BAFL medium CIC ([1]; day 60): 41.8 ± 6.7+ units | Blood large CIC ([1]; day 60): 81.3 ± 11.3*+ units | Blood medium CIC ([1]; day 60): 159.4 ± 12.8+ units | basal superoxid-anion production in response to respiratory explosion stimulators ([1]; in words): decrease | lung morphologic changes as compared to control animals ([1]; in words, after the 3rd bleomycine installation): reliably less pronounced | subacute toxicity, side-effects [2]: does not reveal any side-effects
